# Test results reported in US20250297998A1, “SYSTEM AND METHODS FOR MEASURING AIRBORNE GLYCOL” (Grignard Pure LLC, priority 2022, published 2025).
# What was measured:
# [1] = PLTL-15 Odor Test; format: physicochemical
# Description: (§1) As a non-limiting example, the sanitizing formulation can include 52.25% TEG by weight, 1.00% PG by weight, and 46.75% water (e.g., deionized water) by weight. The properties of this particular example of the sanitizing formulation (and pure TEG as a comparative reference) is summarized in the table below
# [2] = ASTM D445 kinematic viscosity; format: physicochemical
# Description: as §1
# [3] = ASTM D117 freeze point; format: physicochemical
# Description: as §1
# [4] = Visual appearance and odor; format: physicochemical
# Description: as §1
# [5] = ASTM D323 vapor pressure; format: physicochemical; conditions: @ 20° C.
# Description: as §1
# [6] = cited from earlier work
# [7] = ASTM D4052 specific gravity; format: physicochemical
# Description: as §1
# [8] = ASTM D1120 boiling point; format: physicochemical
# Description: as §1
# [9] = ASTM D93 flash point; format: physicochemical
# Description: as §1
smiles,measurement,setting,value
"OCCOCCOCCO [Pure TEG, triethylene glycol]",Odor Test,[1],No Odor
same,"Viscosity, Kinematic @ 40° C.",[2],42.3 cSt
same,Freeze Point ° C.,[3],−7.0° ° C.
same,Appearance and Odor,[4],Clear/Uniform
same,Vapor Pressure (psi),[5],0.0 psi @ 20 °C
same,flash point,"[6]; TEG alone, flammable liquid",157 °C
same,boiling point,[6]; at a pressure of 101.325 kPa,286.5 °C
same,Specific Gravity @ 20° C.,[7],1.12-1.13
same,Boiling Point (° C.),[8],285° ° C.
same,Flash Point (° C.),[9],157° ° C.
